Reference: patent US8952024B2, “Herbicidal pyrimidone derivatives” (E I du Pont de Nemours and Company, priority 2009, dated 2015)

How the values were obtained:
Type in all cases: in vivo
[1] = test system: ducksalad (Heteranthera limosa); assay: Test B flooded paddy test; conditions: for Plant response rating, Flood, Ducksalad: 250 g ai/ha, flooded paddy test, visual rating on 0 to 100 scale (0 no effect, 100 complete control) after 13 to 15 days; for Plant response rating, Ducksalad: Flood (flooded paddy test), 13 to 15 days; for Ducksalad plant response rating: Flood, 31 g ai/ha, scale 0 to 100 (0 no effect, 100 complete control)
Procedure, shortened: (§1)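 Seedlings reaching 2 leaves are flooded 3 cm deep; test material is delivered to that water, which stays at the same depth. Plants remain in a greenhouse 13–15 days and are then scored by eye versus controls from 0 to 100.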

rice (Oryza sativa) = assay: Test B flooded paddy test; conditions: for Plant response rating, Flood, Rice: 250 g ai/ha, flooded paddy test, visual rating on 0 to 100 scale (0 no effect, 100 complete control) after 13 to 15 days; for Plant response rating, Rice: Flood (flooded paddy test), 13 to 15 days; for Rice plant response rating: Flood, 31 g ai/ha, scale 0 to 100 (0 no effect, 100 complete control)
Procedure, shortened: as §1

[2] = test system: umbrella sedge (Cyperus difformis); assay: Test B flooded paddy test; conditions: for Plant response rating, Flood, Sedge, Umbrella: 250 g ai/ha, flooded paddy test, visual rating on 0 to 100 scale (0 no effect, 100 complete control) after 13 to 15 days; for Plant response rating, Sedge, Umbrella: Flood (flooded paddy test), 13 to 15 days; for Sedge, Umbrella plant response rating: Flood, 31 g ai/ha, scale 0 to 100 (0 no effect, 100 complete control)
Procedure, shortened: as §1

[3] = test system: barnyardgrass (Echinochloa crus-galli); assay: Test B flooded paddy test; conditions: for Plant response rating, Flood, Barnyardgrass: 250 g ai/ha, flooded paddy test, visual rating on 0 to 100 scale (0 no effect, 100 complete control) after 13 to 15 days; for Plant response rating, Barnyardgrass: Flood (flooded paddy test), 13 to 15 days; for Barnyardgrass plant response rating: Flood, 31 g ai/ha, scale 0 to 100 (0 no effect, 100 complete control)
Procedure, shortened: as §1

[4] = test system: giant foxtail (Setaria faberii); assay: Test A pre-/postemergence plant response
Procedure, shortened: (§2)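 Plants grown from seed in a loam soil and sand mix received test compounds both as a preemergence soil spray and, at the same time, as a postemergence spray at the one- to two-leaf stage. Injury was judged visually against untreated controls roughly ten days later, 0 meaning no effect and 100 complete control.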

corn (Zea mays) = assay: Test A pre-/postemergence plant response
Procedure, shortened: as §2

[5] = test system: pigweed (Amaranthus retroflexus); assay: Test A pre-/postemergence plant response
Procedure, shortened: as §2

[6] = test system: velvetleaf (Abutilon theophrasti); assay: Test A pre-/postemergence plant response
Procedure, shortened: as §2

[7] = test system: wheat (Triticum aestivum); assay: Test A pre-/postemergence plant response
Procedure, shortened: as §2

[8] = test system: morningglory (Ipomoea spp.); assay: Test A pre-/postemergence plant response
Procedure, shortened: as §2

[9] = test system: large crabgrass (Digitaria sanguinalis); assay: Test A pre-/postemergence plant response
Procedure, shortened: as §2

[10] = test system: barnyardgrass (Echinochloa crus-galli); assay: Test A pre-/postemergence plant response
Procedure, shortened: as §2

[11] = 62 g ai/ha, scale of 0 to 100 where 0 is no effect and 100 is complete control
[12] = 125 g ai/ha, scale 0 to 100, 0 is no effect, 100 is complete control
[13] = Postemergence, 125 g ai/ha, 0 to 100 scale where 0 is no effect and 100 is complete control
[14] = Postemergence, 500 g ai/ha, 0 to 100 scale, 0 = no effect, 100 = complete control, approx. ten days
[15] = Preemergence, 125 g ai/ha, 0 to 100 scale, 0 = no effect, 100 = complete control
[16] = Preemergence, 500 g ai/ha, visual injury, 0 to 100 scale (0 no effect, 100 complete control), approx. ten days
[17] = Preemergence, 500 g ai/ha, 0 to 100 scale, 0 = no effect, 100 = complete control
[18] = 62 g ai/ha, scale 0 to 100, 0 is no effect, 100 is complete control
[19] = Postemergence, 125 g ai/ha, visual injury, 0 to 100 scale (0 no effect, 100 complete control), approx. ten days
[20] = Postemergence, 500 g ai/ha, visual injury, 0 to 100 scale (0 no effect, 100 complete control), approx. ten days

SMILES: CCCn1c(C2CC2)ncc(C(=O)C2=C(O)CCCC2=O)c1=O [Compound 153]
- Plant response rating, Flood, Ducksalad [1]: 100
- Plant response rating, Ducksalad [1, 11]: 65
- Plant response rating, Ducksalad [1, 12]: 100
- Ducksalad plant response rating [1]: 0
- Plant response rating, Flood, Rice (rice (Oryza sativa)): 65
- Plant response rating, Rice (rice (Oryza sativa); [11]): 35
- Plant response rating, Rice (rice (Oryza sativa); [12]): 55
- Rice plant response rating (rice (Oryza sativa)): 35
- Plant response rating, Flood, Sedge, Umbrella [2]: 95
- Plant response rating, Sedge, Umbrella [2, 11]: 0
- Plant response rating, Sedge, Umbrella [2, 12]: 80
- Sedge, Umbrella plant response rating [2]: 0
- Plant response rating, Flood, Barnyardgrass [3]: 45
- Plant response rating, Barnyardgrass [3, 11]: 0
- Plant response rating, Barnyardgrass [3, 12]: 35
- Barnyardgrass plant response rating [3]: 0
- Plant response rating, Foxtail, Giant [4, 13]: 70
- Plant response rating, Foxtail, Giant [4, 14]: 80
- Plant response rating, Foxtail, Giant [4, 15]: 20
- Plant response rating, Foxtail, Giant [4, 16]: 70
- Plant response rating, Corn (corn (Zea mays); [13]): 0
- Plant response rating, Corn (corn (Zea mays); [14]): 20
- Plant response rating, Corn (corn (Zea mays); [15]): 20
- Plant response rating, Corn (corn (Zea mays); [16]): 20
- Plant response rating, Pigweed [5, 13]: 100
- Plant response rating, Pigweed [5, 14]: 100
- Plant response rating, Pigweed [5, 15]: 100
- Plant response rating, Pigweed [5, 16]: 100
- Plant response rating, Velvetleaf [6, 13]: 100
- Plant response rating, Velvetleaf [6, 14]: 100
- Plant response rating, Velvetleaf [6, 15]: 100
- Plant response rating, Velvetleaf [6, 17]: 100
- Plant response rating, Wheat [7, 13]: 0
- Plant response rating, Wheat [7, 14]: 10
- Plant response rating, Wheat [7, 15]: 0
- Plant response rating, Wheat [7, 17]: 20
- Plant response rating, Morningglory [8, 13]: 50
- Plant response rating, Morningglory [8, 14]: 60
- Plant response rating, Morningglory [8, 15]: 20
- Plant response rating, Morningglory [8, 16]: 70
- Plant response rating, Crabgrass, Large [9, 13]: 90
- Plant response rating, Crabgrass, Large [9, 14]: 90
- Plant response rating, Crabgrass, Large [9, 15]: 80
- Plant response rating, Crabgrass, Large [9, 16]: 100
- Plant response rating, Barnyardgrass [10, 13]: 80
- Plant response rating, Barnyardgrass [10, 14]: 90
- Plant response rating, Barnyardgrass [10, 15]: 40
- Plant response rating, Barnyardgrass [10, 16]: 80

SMILES: Cc1cccc(C)c1-n1c(-c2ccccc2)ncc(C(=O)C2=C(O)CCCC2=O)c1=O [Compound 31]
- Plant response rating, Flood, Ducksalad [1]: 75
- Plant response rating, Ducksalad [1, 18]: 60
- Plant response rating, Flood, Rice (rice (Oryza sativa)): 0
- Plant response rating, Rice (rice (Oryza sativa); [18]): 0
- Plant response rating, Flood, Sedge, Umbrella [2]: 75
- Plant response rating, Sedge, Umbrella [2, 18]: 60
- Plant response rating, Flood, Barnyardgrass [3]: 0
- Plant response rating, Barnyardgrass [3, 18]: 0
- Foxtail, Giant plant response rating [4, 19]: 70
- Plant response rating, Foxtail, Giant [4, 14]: 90
- Plant response rating, Foxtail, Giant [4, 15]: 0
- Plant response rating, Foxtail, Giant [4, 16]: 40
- Corn plant response rating (corn (Zea mays); [19]): 0
- Plant response rating, Corn (corn (Zea mays); [14]): 20
- Plant response rating, Corn (corn (Zea mays); [15]): 0
- Plant response rating, Corn (corn (Zea mays); [16]): 0
- Pigweed plant response rating [5, 19]: 70
- Plant response rating, Pigweed [5, 14]: 100
- Plant response rating, Pigweed [5, 15]: 40
- Plant response rating, Pigweed [5, 16]: 80
- Velvetleaf plant response rating [6, 19]: 100
- Plant response rating, Velvetleaf [6, 14]: 100
- Plant response rating, Velvetleaf [6, 15]: 10
- Plant response rating, Velvetleaf [6, 16]: 70
- Wheat plant response rating [7, 19]: 0
- Plant response rating, Wheat [7, 14]: 0
- Plant response rating, Wheat [7, 15]: 0
- Plant response rating, Wheat [7, 16]: 0
- Morningglory plant response rating [8, 19]: 20
- Plant response rating, Morningglory [8, 14]: 70
- Plant response rating, Morningglory [8, 15]: 0
- Plant response rating, Morningglory [8, 16]: 50
- Crabgrass, Large plant response rating [9, 19]: 50
- Plant response rating, Crabgrass, Large [9, 14]: 90
- Plant response rating, Crabgrass, Large [9, 15]: 0
- Plant response rating, Crabgrass, Large [9, 16]: 90
- Barnyardgrass plant response rating [10, 19]: 10
- Plant response rating, Barnyardgrass [10, 14]: 80
- Plant response rating, Barnyardgrass [10, 15]: 0
- Plant response rating, Barnyardgrass [10, 16]: 40

SMILES: CCCn1c(-c2cccc(C)c2)ncc(C(=O)C2=C(O)CCCC2=O)c1=O [Compound 172]
- Plant response rating, Ducksalad [1, 12]: 60
- Ducksalad plant response rating [1]: 20
- Plant response rating, Rice (rice (Oryza sativa); [12]): 0
- Rice plant response rating (rice (Oryza sativa)): 0
- Plant response rating, Sedge, Umbrella [2, 12]: 75
- Sedge, Umbrella plant response rating [2]: 0
- Plant response rating, Barnyardgrass [3, 12]: 20
- Barnyardgrass plant response rating [3]: 0
- Plant response rating, Foxtail, Giant [4, 13]: 60
- Foxtail, Giant plant response rating [4, 20]: 90
- Plant response rating, Foxtail, Giant [4, 15]: 10
- Plant response rating, Foxtail, Giant [4, 17]: 60
- Plant response rating, Corn (corn (Zea mays); [13]): 20
- Corn plant response rating (corn (Zea mays); [20]): 30
- Plant response rating, Corn (corn (Zea mays); [15]): 0
- Plant response rating, Corn (corn (Zea mays); [17]): 0
- Plant response rating, Pigweed [5, 13]: 100
- Pigweed plant response rating [5, 20]: 100
- Plant response rating, Pigweed [5, 15]: 10
- Plant response rating, Pigweed [5, 17]: 100
- Plant response rating, Velvetleaf [6, 13]: 100
- Velvetleaf plant response rating [6, 20]: 100
- Plant response rating, Velvetleaf [6, 15]: 50
- Plant response rating, Velvetleaf [6, 17]: 80
- Plant response rating, Wheat [7, 13]: 0
- Wheat plant response rating [7, 20]: 20
- Plant response rating, Wheat [7, 15]: 0
- Plant response rating, Wheat [7, 17]: 0
- Plant response rating, Morningglory [8, 13]: 90
- Morningglory plant response rating [8, 20]: 100
- Plant response rating, Morningglory [8, 15]: 0
- Plant response rating, Morningglory [8, 17]: 50
- Plant response rating, Crabgrass, Large [9, 13]: 60
- Crabgrass, Large plant response rating [9, 20]: 80
- Plant response rating, Crabgrass, Large [9, 15]: 10
- Plant response rating, Crabgrass, Large [9, 17]: 90
- Plant response rating, Barnyardgrass [10, 13]: 90
- Barnyardgrass plant response rating [10, 20]: 90
- Plant response rating, Barnyardgrass [10, 15]: 10
- Plant response rating, Barnyardgrass [10, 17]: 80
